Measurements from paper PMC6248931 (Science Advances, 2018).

Assays:
HIV [1] = settings: cited from earlier work
HIV-1 pseudovirions = assay type: cell-based; settings: 1 μM
HIV HR2 peptide = HIV HR2 peptide (Human immunodeficiency virus type 1, UniProt P03377); assay type: binding
HIV HR1-HR2 interaction = assay type: binding
influenza virus = settings: cited from earlier work
HIV [2] = settings: human, in vivo; cited from earlier work

Chain of HIV HR2 peptide (P03377 633-666 limits assumed): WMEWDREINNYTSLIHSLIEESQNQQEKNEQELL

Compound: C=C(C)[C@@H]1CC[C@]2(C(=O)O)CC[C@]3(C)[C@H](CC[C@@H]4[C@@]5(C)CC[C@H](O)C(C)(C)[C@@H]5CC[C@]43C)[C@@H]12 [BA, betulinic acid]
- inhibitory activity against HIV infection (HIV [1]): show inhibitory activity

Compound: C=C(C)[C@@H]1CC[C@]2(C(=O)NCCCCCCCC(=O)N(CCCC3(C)N=N3)CC(=O)O)CC[C@]3(C)C(CCC4[C@@]5(C)CC[C@H](O)C(C)(C)C5CC[C@]43C)C12 (stereo partly shown) [Y20]
- inhibitory activity on the infectivity of HIV-1 pseudovirions (HIV-1 pseudovirions): exhibited inhibitory activity
- binding to HIV-HR2 (in words) (HIV HR2 peptide): binds tightly
- effect on HIV-HR1/HIV-HR2 affinity (in words) (HIV HR1-HR2 interaction): significantly reduced their affinity

Compound: CC1(C)CC[C@]2(C(=O)O)CC[C@]3(C)C(=CC[C@@H]4[C@@]5(C)CC[C@H](O)C(C)(C)[C@@H]5CC[C@]43C)[C@@H]2C1 [OA, oleanolic acid]
- inhibitory effect on influenza virus entry (influenza virus): significant inhibitory effect
- inhibitory activity against HIV infection (HIV [1]): show inhibitory activity

Compound: C=C(C)[C@@H]1CC[C@]2(C(=O)O)CC[C@]3(C)[C@H](CC[C@@H]4[C@@]5(C)CC[C@H](OC(=O)CC(C)(C)C(=O)O)C(C)(C)[C@@H]5CC[C@]43C)[C@@H]12 [bevirimat]
- efficacy in clinical trials (HIV [2]): promising efficacy
